Like-named read-outs stand apart in the source and are kept apart here.

For orientation: IC50 means the point on the concentration scale where inhibition reaches its midpoint.

The nature of series [1]: Aqueous stability (hydrolysis) by UV-Vis kinetic scan in 10% MeOH (aq). Type of series: physicochemical. As for the experimental part:
Since biological systems are comprised of water, the behavior and stability of a drug in aqueous media is important. To determine the stability, each complex was dissolved in MeOH and then diluted to 10% MeOH (aq). The solutions were then monitored by UV-Vis spectroscopy using a kinetic scan in the range 190–1100 nm over 1 hour. […] Hydrolysis was also supported by RP-HPLC in which new peaks emerged corresponding to the starting ferrocene precursors, F2 and F4. […] […] The major difference being between C1/C2 and C3/C4 is the nature of the linkage either being an ester or an amide bond. It is expected that the hydrolysis of C2 would occur quicker due to the more labile nature of the ester bond.
UV-Vis studies were performed by dissolving each complex in methanol to a concentration of 1 mM. This was then diluted using distilled water in a 10% methanol/water mixture giving a final concentration of 100 μM. The complexes were then monitored using a kinetic scan between the range 190–1100 nm scanning each minute over the course of one hour. […]

The nature of series [2]: Cyclic voltammetry (oxidation/reduction potentials). The format is physicochemical. As to conditions: Ag/AgCl electrode, scan rate 100 mV s^−1, 0.100 M [NBu4][PF6] in MeCN.
In a further series the test system is T. gondii. As to the kind of experiment: Determination of intracellular ROS levels with CellROX by flow cytometry. The format is cell-based, Toxoplasma gondii. Particulars: 5 μM, 6 hours, 50 000 parasites, vs untreated. As for the experimental part:
Since both ferrocene and artesunate are able to generate ROS, we attempted to quantify the intracellular ROS levels in the parasite using CellROX, a compound which fluoresces in the presence of ROS. Treatment with artesunate was included as positive control as previous studies have linked artesunate treatment to ROS accumulation.[44] The parasites were treated with 5 μM of complexes C1, C3 and C4, and incubated for 6 hours. […] Since T. gondii rely predominately on heme biosynthesis as opposed to incorporation of heme from host hemoglobin, the concentration of iron present in the parasite is lower.[45] But, by incorporating an iron center in the molecule the slower activation may be circumvented leading to quicker cell death and a decreased CellROX reading.
Fig. 5 CellROX fluorescence quantified by flow cytometry from 50 000 parasites. T. gondii were untreated (grey) or treated for 6 hours with 5 μM compounds (blue) or artesunate (red) as a positive control.
Intracellular parasites were treated with 5 μM of the drug and incubated at 37 °C with 5% CO2 for either 18 hours or 6 hours. The parasites were released from host cells by scraping and syringing followed by passing through 3 μm filters to remove host-cell debris. The parasites were spun down at 6000 RPM for 10 minutes and resuspended in 500 μL PBS. 100 μL of the parasite suspension was placed in a FACS tube and a stock solution of CellROX dye in PBS (1 : 125 dilution) was added to this. This was then incubated in the dark at 37 °C for 1 hour and then read using a BD Celesta. Parasites were gated on forward and side scatter and on mNeonGreen fluorescence and histograms of Cy5 signal presented. Data analysis was performed using Flowjo.
A general note: In flow cytometry, cells or beads pass a laser one at a time.

Another series deals with HEK293 cells. The experiment in a line: MTT cell viability assay, HEK293. The format is cell-based, human. As to conditions: for IC50: 48 h. As for the experimental part:
To assess the cytotoxicity of the four compounds a MTT cell viability assay using human embryonic kidney (HEK293) and human prostatic (PNT1A) cell lines were performed. […] The long chain compounds C1 and C3 were also shown to be non-cytotoxic towards the HEK293 cell line.
The immortalised human prostatic epithelial cell line, PNT1A (Sigma Aldrich, 95012614) was cultured in RPMI-1640 containing 10% foetal calf serum (Life Technologies, South Africa). The human embryonic kidney cell line HEK293 (ATCC) was cultured in DMEM (Life Technologies, South Africa). Both cell lines were cultured at 37 °C under 5% CO2 with 1% penicillin and streptomycin. Cancer cell cytotoxicity was evaluated using the MTT viability assay according to our previous method.[49] Briefly, cells were seeded at a density of 3 × 10^3 cells per well in 96-well plates and allowed to settle overnight. A 100 mM stock of C1/C2 and a 50 mM stock solution of C3/C4 in DMSO was prepared from which dilutions were made. The compound was then added to the cells in triplicate to obtain the indicated concentrations and 0.1% DMSO. Controls included cells treated with […] DMSO alone. After 48 h, 10 μL of 5 mg mL^−1 MTT (3-(4,5-dimethylthiazol-2-yl)-2,5-diphenyltetrazolium bromide) (Sigma-Aldrich) was added, and incubated with the cells for 4 h, followed by addition of 100 μL 10% SLS, 0.01 M HCL. The plates were read at 595 nm on a Multiscan FC plate reader (Thermo Scientific) and the data was fitted to a variable slope dose–response curve using Graphpad prism v6 to obtain the cytotoxicity IC50. The assay was repeated independently three times where inhibition was observed.
Background: Tetrazolium dyes change colour on reduction, which living cells bring about.

Series [3] deals with T. gondii (ΔKu80::mNeonGreen). The experiment in a line: T. gondii growth inhibition assay (mNeonGreen fluorescence). The format is cell-based, Toxoplasma gondii. Particulars: three independent experiments in triplicate, ± SEM. As for the experimental part:
[…]. The rate of hydrolysis of C2 and C4 is closely correlated to the activity seen against T. gondii, such that the more readily the complex separates into its constituents, parts the better the overall activity.
To further investigate whether the accumulation of ROS was implicated in the MoA, the growth inhibition studies were repeated in the presence of the ROS scavenger N-acetyl cysteine (NAC) (Table 5).
Growth inhibition assays were performed in black, clear-bottomed 96 well plates preseeded with Human foreskin fibroblasts (HFFs) as described previously.[48] ΔKu80:mNeonGreen T. gondii were counted using a hemeocytometer and media from the host-cell seeded plate was aspirated and replaced with either 200 μL of D3 or 200 μL of media + 5000 parasites per well. Infected cells were incubated for 2 hours at 37 °C with 5% CO2 to allow for invasion. Following this, the media was removed and replaced with 100 μL fresh media. 100 μL of media containing 100 μM of the indicated drug in sterile DMSO was added and serially diluted. The parasites were then incubated for four days at 37 °C with 5% CO2 then flourescense read using the PHERAstar microplate reader. After removal of background, fluorescence values were normalised to untreated and plotted. Data analysis and non-linear regression was performed in Prism.

The mark [4] stands for this setting: change in absorbance at 254 nm over one hour, ExpDec1 fit.
Where [5] appears, read: four days, in HFF host cells, read-out: IC50 against T. gondii.
The mark [6] stands for this setting: with 5 mM NAC (ROS scavenger), read-out: IC50 + NAC against T. gondii.
Setting [7] is: no curve could be fitted within one hour.

As to `CC1CCC2C(C)C(OC(=O)CCC(=O)NC[c-]3cccc3)OC3OC4(C)CCC1C32OO4.[Fe+2].c1cc[cH-]c1` (stereo not drawn) [Compound C4], in series [1] (setting [4]), the Half-life stood at 0.155 ± 0.0035 h and the “Rate constant (hydrolysis)” value stood at 0.074 ± 0.0016 min⁻¹. Moreover, in series [2], the “E 1/2” value is listed as 0.364 V, the “E Ox” value was found to be 0.400 V, the “E Red” value was found to be 0.327 V and the ΔE is on record as 0.0730 V. In addition, the “Change in CellROX signal (intracellular ROS)” value (“Change in CellROX signal” below) in the series on T. gondii is on record as “no change in CellROX signal”. The compound also returned an IC50 in the series with HEK293 cells of 36 ± 2.7 µM. Further, the IC50 in series [3] (setting [5]) was found to be 0.6 ± 0.035 µM. For the same compound, the half-maximal inhibitory concentration (IC50) in series [3] (setting [6]) amounted to 1.2 ± 0.179 µM.

`CC1CCC2C(C)C(OC(=O)CCC(=O)OCCNC(=O)[c-]3cccc3)OC3OC4(C)CCC1C32OO4.[Fe+2].c1cc[cH-]c1` (stereo not drawn) [Compound C1] registered a Half-life in series [1] (setting [7]) of more than 1 h. For the same compound, in series [2], the “E 1/2” value came out at 0.623 V, the “E Ox” value turned out to be 0.658 V, the “E Red” value is listed as 0.588 V and the ΔE amounted to 0.0700 V. For the same compound, in the series with T. gondii, the “Change in CellROX signal” value is given as “no change in CellROX signal”. Besides, in the series on HEK293 cells, the “Cytotoxicity towards HEK293” value was “non-cytotoxic” and the IC50 was more than 100 µM. Moreover, in series [3] (setting [5]), the IC50 was found to be 0.68 ± 0.031 µM. In addition, the IC50 in series [3] (setting [6]) came out at 0.83 ± 0.13 µM.

`CC1CCC2C(C)C(OC(=O)CCC(=O)NCCNC(=O)[c-]3cccc3)OC3OC4(C)CCC1C32OO4.[Fe+2].c1cc[cH-]c1` (stereo not drawn) [Compound C3]: the Half-life in series [1] (setting [7]) was more than 1 h. In series [2], the “E 1/2” value is 0.616 V, the “E Ox” value is 0.660 V, the “E Red” value is listed as 0.571 V and the ΔE was 0.0890 V. For the same compound, the “Change in CellROX signal” value with T. gondii was “increase in intracellular ROS”. In the series on HEK293 cells, the “Cytotoxicity towards HEK293” value is given as “non-cytotoxic” and the IC50 was more than 50 µM. In series [3] (setting [5]), the half-maximal inhibitory concentration (IC50) turned out to be 1.2 ± 0.064 µM. In series [3] (setting [6]), the 50% inhibitory concentration (IC50) amounted to 1.5 ± 0.14 µM.
